These results are taken from PMC7433010, “Exploration of multi‐target effects of 3‐benzoyl‐5‐hydroxychromen‐2‐one in Alzheimer’s disease cell and mouse models” (Aging Cell, 2020).

In data set [1] the test system is STZ‐induced hyperglycemic 3 × Tg‐AD mice. The data set is described as follows: Open‐field test in STZ‐treated 3 × Tg‐AD mice. The format is in vivo, mouse. The note with it: day 24; 40 mg/kg i.p. The method, then:
(§1) Mice harboring APPSwe, PS1M146V, and […] transgenes (3×Tg-AD) (Oddo et al., 2003) were purchased from the Jackson Laboratory (004807; Bar Harbor, ME, USA). Six-month-old male homozygous 3×Tg-AD mice were group housed at 20–25°C and 60% relative humidity under a daily 12-h light/12-h dark cycle, with assess to food and water ad libitum. Mice were randomly divided into 3 groups: – streptozocin (STZ), STZ, and STZ/LM-031 (n = 10 per group). STZ-induced hyperglycemia was used to accelerate the development of AD phenotype (Chen et al., 2014). Briefly, the mice were fasted for 12 h each day prior to intraperitoneal (i.p.) injection of STZ ([…]; Sigma-Aldrich) or vehicle (0.1 M sodium citrate pH4.5) for 4 times (days 2, 3, 9, and 10) (Chen et al., 2019). Mouse body weight was measured and blood glucose level was measured on days 1, 8, 15, 22, and 29 using a blood glucose meter (Bioland Technology, Taipei, Taiwan). LM-031 (40 mg/kg) or vehicle (DMSO:Cremophor EL:0.9% saline = 1:2:7) was intraperitoneally injected every day for 22 days from days 15 to 36. All animal procedures were ethically approved by the Institutional Animal Care and Use Committee of National Taiwan Normal University, Taipei, Taiwan (Permit Number: 103002) and were conducted in compliance with the ARRIVE (Animal Research: Reporting In Vivo Experiments) guidelines. […]

Another data set deals with AKT. Kind of data set: Western blot of AKT in ∆K280 TauRD‐DsRed SH‐SY5Y cells. The format is cell-based, human. The method, then:
(§2) Total proteins from ∆K280 TauRD-DsRed SH-SY5Y cells were obtained using a RIPA buffer containing 50 mM Tris-HCl (pH8.0), 150 mM NaCl, 2 mM EDTA (pH8.0), 50 mM NaF, 0.1% SDS, 0.5% sodium deoxycholate, 1% NP40, and a protease inhibitor cocktail (Sigma-Aldrich). After sonication and sitting on ice for 20 min, the lysates were centrifuged at 14,000 × g for 30 min at 4°C. Protein concentrations were determined using a protein assay kit (Bio-Rad, Hercules, CA, USA), with albumin as a standard. Total proteins (20 µg) were electrophoresed on 10% or 12% SDS-polyacrylamide gel and transferred onto polyvinylidene difluoride (PVDF) membranes (Sigma-Aldrich) through reverse electrophoresis. […] Subsequently, immune complexes were detected using a horseradish peroxidase-conjugated goat anti-mouse or goat anti-rabbit IgG antibody (1:5000; GeneTex, Irvive, CA, USA) and a chemiluminescent substrate (Millipore).
Figure S4. ΔK280 TauRD-DsRed SH-SY5Y cells. […] On day 9, neurite outgrowth and caspase 3 activity were measured. In addition, expression of HSPB1, NRF2, and CREB pathways were assessed. (b) Relative AKT, pAKT, ERK, and pERK protein levels analyzed through immunoblotting. […]
(In general: A western blot detects proteins with antibodies after separation by electrophoresis.)

For another data set, the system named is GADD45B. Kind of data set: Western blot of GADD45B in ∆K280 TauRD‐DsRed SH‐SY5Y cells. The format is cell-based, human. To be noted: 1 µM; induced untreated 65%, uninduced 100%. On the procedure:
as §2

In a further data set the test system is BCL2. The data set is described as follows: Western blot of BCL2 in ∆K280 TauRD‐DsRed SH‐SY5Y cells. The format is cell-based, human. The note with it: 1 µM; induced untreated 83%, uninduced 100%. On the procedure:
as §2

The subject of another data set is sarkosyl‐insoluble Tau. The data set is described as follows: TEM of sarkosyl‐insoluble Tau from STZ‐treated 3 × Tg‐AD mice. The class given is in vivo, mouse. The note with it: STZ/LM‐031 mice. The source says: Figure S7. Body weight, blood glucose, open field task, NeuN immunoreactivity, and TEM of sarkosyl-insoluble tau in STZ-treated 3×Tg-AD mice. (a) Body weight and blood glucose of the mice. […] (c) Representative IHC images for NeuN and intensity quantification in the hippocampus of mice. DG, dentate gyrus; CA1 and CA3, Cornu Ammonis areas 1 and 3. (d) TEM of sarkosyl-insoluble tau. p values, STZ vs. – STZ mice or STZ/LM-031 vs. STZ mice. *: p < 0.05, ^##: p < 0.01, ^##^#: p < 0.001. (one-way ANOVA with a post hoc Tukey test)

For another data set, the system named is CREB. The data set is described as follows: Western blot of CREB in hippocampus of STZ‐treated 3 × Tg‐AD mice. The class given is in vivo, mouse. To be noted: among the three groups. The method, then:
In addition, isolated hippocampal and cortex tissues from transgenic mice (as described in Animal studies) were homogenized and extracted proteins (10 µg) were separated and blotted. After being blocked, the membranes were probed with antibody against mouse NRF2 (1:500; Sigma-Aldrich), CREB (1:500; Millipore), pCREB (S133) (1:1000; Millipore), or GAPDH (1:1000; MDBio), and the immune complexes detected as described above.
as §1, with “Taiwan).” for “Taiwan). LM-031 (40 mg/kg) or vehicle (DMSO:Cremophor EL:0.9% saline = 1:2:7) was intraperitoneally injected every day for 22 days from days 15 to 36. All animal procedures were ethically approved by the Institutional Animal Care and Use Committee of National Taiwan Normal University, Taipei, Taiwan (Permit Number: 103002) and were conducted in compliance with the ARRIVE (Animal Research: Reporting In Vivo Experiments) guidelines.”

In the case of `O=C(c1ccccc1)c1cc2c(O)cccc2oc1=O` [LM‐031, 3‐benzoyl‐5‐hydroxychromen‐2‐one], in data set [1], the “open‐field distance traveled and inactive time” value is listed as “No significant change”. The AKT level entry in the data set on AKT is on record as “not notably affected”. Further, in the data set on GADD45B, the GADD45B protein level is reported as 111%. The compound further had a BCL2 protein level in the data set on BCL2 of 106%. In addition, in the data set with sarkosyl‐insoluble Tau, the “sarkosyl‐insoluble Tau aggregates by TEM” value was “reduced Tau aggregates”. Further, in the data set with CREB, the “relative total CREB level in hippocampus” value was “not significantly different”.
